This is an account of results in US11339150B2, “Benzimidazole compounds as HDAC6 inhibitors” (OnKure, Inc., priority 2019, dated 2022).

Data set [1] concerns Tubulin deacetylation in U266B1 human myeloma cell line. Nature of the data set: Tubulin deacetylation inhibition in U266B1 cells. Type of data set: cell-based. Conditions: Cell Type U266B1. As for the experimental part: Tubulin Deacetylation Inhibition
Example 1 was dissolved with DMSO at 10 mM stock. Reference compound TSA was dissolved with DMSO at 10 mM stock. U266B1 human myeloma cell line was purchased from American Type Culture Collection (Manassas, Va.). U266B1 cells were grown in RPMI medium and supplemented with 15% heat-inactivated fetal bovine serum (FBS), 100 μg/ml penicillin, and 100 μg/ml streptomycin. Cultures were maintained at 37° C. in a humidified atmosphere of 5% CO2 and 95% air. 12% Bis-Tris gel and nitrocellulose membrane were purchased from Thermo Fisher. Anti-acetylated-Tubulin antibody (Catalogue #T7451) was purchased from Sigma-Aldrich. Anti-α-Tubulin antibody (Catalogue #sc-12462-R) antibody was purchased from Santa Cruz Biotechnology. Anti-Acetylated Histone H3 (K9) (Catalogue #9649) and anti-Histone H3 (Catalogue #3638) antibodies were purchased from Cell Signaling Technology. Anti-rabbit IgG IRDye 680RD or anti-mouse IgG IRDye 800CW secondary antibodies were purchased from LI-COR.

The target of the next data set is HDAC3 (Homo sapiens, UniProt O15379). Nature of the data set: HDAC assay (fluorogenic substrate), HDAC3. Type of data set: biochemical. The following applies: isoform selectivity table. As for the experimental part:
(§1) Base Reaction buffer: 50 mM Tris-HCl, pH8.0, 137 mM NaCl, 2.7 mM KCl, and 1 mM MgCl2. Add fresh: 1 mg/ml BSA, 1% DMSO
(§2) Fluorogenic HDAC General Substrate: 50 μM, Arg-His-Lys-Lys(Ac)
(§3) • 1. Deliver 2× enzyme in wells of reaction plate except No Enzyme control wells. Add buffer in No En wells. • 2. Deliver compounds in 100% DMSO into the enzyme mixture by Acoustic technology (Echo550; nanoliter range). Spin down and pre-incubation. • 3. Deliver 2× Substrate Mixture (Fluorogenic HDAC Substrate and co-factor if applicable) in all reaction wells to initiate the reaction. Spin and shake. • 4. Incubate for 30 min for Class 2A, 1 hr for HDAC1, 2, 3, and 6, and 2 hr for the rest of HDACs and SIRTs at 30° C. with seal. Development Step: • 5. Add Developer with Trichostatin A (or Nicotinamide for SIRTs) to stop the reaction and to generate fluorescent color. • 6. Kinetic measurement for 1.5 hr with Envision with 15 min interval. (Ex/Em=360/460 nm) • 7. Take endpoint reading for analysis after the development reaches plateau.

In the next data set the target is HDAC1 (Homo sapiens, UniProt Q13547). Briefly: HDAC assay (fluorogenic substrate), HDAC1. The following applies: isoform selectivity table. The class given is biochemical. As for the experimental part: as §1, §2, §3
Another data set addresses T1, HDAC6 (Homo sapiens, UniProt Q9UBN7).
T1 sequence (Q9UBN7 1-1215): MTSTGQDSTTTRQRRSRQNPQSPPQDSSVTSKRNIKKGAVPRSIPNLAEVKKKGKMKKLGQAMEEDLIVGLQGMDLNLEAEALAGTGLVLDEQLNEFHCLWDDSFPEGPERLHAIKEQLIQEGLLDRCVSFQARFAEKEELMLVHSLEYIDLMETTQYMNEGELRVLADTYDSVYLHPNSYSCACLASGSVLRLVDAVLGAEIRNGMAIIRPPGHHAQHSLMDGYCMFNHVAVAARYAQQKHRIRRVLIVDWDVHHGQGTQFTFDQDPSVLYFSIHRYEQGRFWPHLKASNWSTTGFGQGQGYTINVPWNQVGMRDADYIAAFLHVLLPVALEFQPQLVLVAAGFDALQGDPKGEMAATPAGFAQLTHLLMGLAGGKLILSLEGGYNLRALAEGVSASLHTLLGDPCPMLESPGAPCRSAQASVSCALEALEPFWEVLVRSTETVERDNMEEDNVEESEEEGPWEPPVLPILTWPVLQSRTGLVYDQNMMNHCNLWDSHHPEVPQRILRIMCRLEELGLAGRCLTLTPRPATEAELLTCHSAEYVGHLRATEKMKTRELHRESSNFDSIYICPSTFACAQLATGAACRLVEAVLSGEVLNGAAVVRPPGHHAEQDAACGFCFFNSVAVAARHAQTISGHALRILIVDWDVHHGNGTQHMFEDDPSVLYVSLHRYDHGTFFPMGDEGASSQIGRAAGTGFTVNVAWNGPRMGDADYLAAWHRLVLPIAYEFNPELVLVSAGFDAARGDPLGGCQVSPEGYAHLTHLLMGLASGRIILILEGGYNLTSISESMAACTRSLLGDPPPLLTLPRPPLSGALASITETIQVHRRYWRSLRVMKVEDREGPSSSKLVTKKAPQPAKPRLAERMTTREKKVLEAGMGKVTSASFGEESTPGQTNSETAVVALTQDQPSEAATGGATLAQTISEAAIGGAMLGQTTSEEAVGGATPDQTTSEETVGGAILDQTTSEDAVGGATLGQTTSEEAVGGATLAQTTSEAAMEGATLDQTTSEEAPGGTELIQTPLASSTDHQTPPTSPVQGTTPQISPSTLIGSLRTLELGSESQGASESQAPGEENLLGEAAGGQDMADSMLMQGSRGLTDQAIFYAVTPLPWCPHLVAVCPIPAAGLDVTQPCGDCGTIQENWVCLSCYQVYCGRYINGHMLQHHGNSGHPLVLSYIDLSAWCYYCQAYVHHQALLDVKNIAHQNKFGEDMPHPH
Nature of the data set: HDAC assay (fluorogenic substrate), HDAC6. Type of data set: biochemical. As for the experimental part:
as §1, §2, §3

The next data set addresses HDAC2 (Homo sapiens, UniProt Q92769). Briefly: HDAC assay (fluorogenic substrate), HDAC2. The class given is biochemical. Conditions: isoform selectivity table. As for the experimental part:
as §1, §2, §3

A short description of data set [2]: Pharmacokinetic evaluation in male CD1 mice. Conditions: mouse, in vivo, po, 10 mg/kg (p.o.).

HDAC3, sequence (O15379 whole entry, canonical isoform): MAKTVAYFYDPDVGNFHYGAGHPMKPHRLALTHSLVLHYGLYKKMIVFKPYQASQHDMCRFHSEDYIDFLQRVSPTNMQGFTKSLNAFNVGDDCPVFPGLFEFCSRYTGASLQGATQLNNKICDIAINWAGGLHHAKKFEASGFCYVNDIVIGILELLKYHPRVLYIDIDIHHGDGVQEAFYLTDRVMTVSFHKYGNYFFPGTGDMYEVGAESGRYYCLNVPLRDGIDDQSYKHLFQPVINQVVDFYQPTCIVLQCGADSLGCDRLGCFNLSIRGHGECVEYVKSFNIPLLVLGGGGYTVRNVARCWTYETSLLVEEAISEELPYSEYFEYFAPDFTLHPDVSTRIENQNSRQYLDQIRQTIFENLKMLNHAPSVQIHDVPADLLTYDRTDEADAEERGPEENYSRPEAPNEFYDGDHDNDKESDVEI
HDAC3, sequence (Q9Y618 395-489 partner limits assumed): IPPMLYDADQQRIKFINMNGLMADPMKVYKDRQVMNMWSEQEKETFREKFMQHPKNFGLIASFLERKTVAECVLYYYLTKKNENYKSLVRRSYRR
HDAC1, sequence (Q13547 whole entry, canonical isoform): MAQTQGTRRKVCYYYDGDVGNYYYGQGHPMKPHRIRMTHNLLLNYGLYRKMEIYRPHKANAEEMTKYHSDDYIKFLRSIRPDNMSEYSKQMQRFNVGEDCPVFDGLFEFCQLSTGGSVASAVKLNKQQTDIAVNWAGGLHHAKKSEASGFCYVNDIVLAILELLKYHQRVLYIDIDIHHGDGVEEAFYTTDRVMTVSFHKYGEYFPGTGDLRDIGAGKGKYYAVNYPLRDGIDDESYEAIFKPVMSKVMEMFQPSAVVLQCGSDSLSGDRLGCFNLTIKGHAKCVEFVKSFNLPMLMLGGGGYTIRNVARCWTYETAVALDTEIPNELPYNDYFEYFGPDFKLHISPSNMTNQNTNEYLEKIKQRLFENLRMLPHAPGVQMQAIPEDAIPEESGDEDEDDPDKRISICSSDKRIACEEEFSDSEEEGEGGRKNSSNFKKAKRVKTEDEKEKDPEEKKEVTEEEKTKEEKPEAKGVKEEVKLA
HDAC2, sequence (Q92769 whole entry, canonical isoform): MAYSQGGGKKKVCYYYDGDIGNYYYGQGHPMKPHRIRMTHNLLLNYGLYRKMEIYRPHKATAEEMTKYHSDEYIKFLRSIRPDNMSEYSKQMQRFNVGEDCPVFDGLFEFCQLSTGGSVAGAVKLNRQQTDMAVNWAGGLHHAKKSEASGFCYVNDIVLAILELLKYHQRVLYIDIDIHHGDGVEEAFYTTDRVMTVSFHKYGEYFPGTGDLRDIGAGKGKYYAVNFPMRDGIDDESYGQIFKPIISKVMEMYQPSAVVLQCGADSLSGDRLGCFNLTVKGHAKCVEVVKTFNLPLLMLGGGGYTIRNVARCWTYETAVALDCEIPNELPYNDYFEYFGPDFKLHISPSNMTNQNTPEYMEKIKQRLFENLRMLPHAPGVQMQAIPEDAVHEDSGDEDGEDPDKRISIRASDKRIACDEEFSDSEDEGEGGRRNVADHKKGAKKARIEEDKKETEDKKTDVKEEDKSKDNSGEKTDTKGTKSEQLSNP

Turning to `CC(/C=C/C(=O)NO)=C\[C@@H](C)C(=O)c1ccc(N(C)C)cc1` [Trichostatin, reference compound], the IC50 (usually the concentration needed to halve the response being measured) in data set [1] is 750 nM.
For `FC(F)c1nnc(-c2cnc(Nc3cc(-c4ccccc4)c4nc[nH]c4c3)nc2)o1` [Example 1, N-(5-(5-(difluoromethyl)-1,3,4-oxadiazol-2-yl)pyrimidin-2-yl)-4-phenyl-1H-benzo[d]imidazol-6-amine], the inhibition (in general, the share of the control response that was lost under treatment) at 10 µM against HDAC3 was under 10%; on HDAC1 it was under 20%; on HDAC6 it was over 90%; against HDAC2 it was under 10%. In data set [1], this compound showed an IC50 of 2700 nM. For the same compound, the “% HDAC6 Inhibition @ 10 uM” value at HDAC6 (10 uM, isoform selectivity table) is reported as over 90%. Moreover, the AUC(0-t) (usually exposure summed from dosing to a finite time, without extrapolation to infinity) in data set [2] worked out at 5820 ng·h/mL. Further, in data set [2], the highest level (Cmax) was 1450 ng/mL. Moreover, in data set [2] (read-out: T1/2 h (converted)), the half-life was 105 min.
